Where two headings read alike, the source gives them in different places.
Key:
[1] = system: cAMP; settings: retina (Osborne 1991); cited from earlier work
[2] = topically applied, glaucomatous patients (Lachkar 1998; Carlsson 1999); cited from earlier work
[3] = system: photoreceptors; settings: albino rats, cited from earlier work; for protection of photoreceptors from light damage: systemic administration (Wen et al., 1996)
[4] = system: mitogen-activated protein kinase (MAPK); settings: systemically administered (Peng et al., 1998); cited from earlier work
[5] = system: Müller cells of RPE-free eye rudiments; settings: for upregulation of GFAP induced by RPE removal: brimonidine added to culture media; for glutamine synthetase (GS) immunoreactivity: brimonidine-treated RPE-free eye rudiments
Method: (§1) The following studies were performed on Xenopus embryos. Briefly, eye rudiments were removed from stage 33/34 Xenopus embryos. The RPE was peeled from the outer retinal surface and eyes were cultured for 3 days in Niu-Twitty (NT) medium. The same experiment was performed in NT medium containing 0.001% brimonidine. Control conditions included eye rudiments cultured with the RPE and eyes allowed to mature in vivo to an equivalent developmental stage. Retinal morphology was assessed, carefully evaluating PRs and MCs.
(§2) The culture preparation used in these studies has been previously described (Hollyfield, 1974; Lolley, 1977; Stiemke, 1994; Stiemke, 1995; and Jablonski, 1999). The handling of animals was in accordance with the Declaration of Helsinki and The Guiding Principles in the Care and Use of Animals (DHEW Publication, NIH 80-23). Human chorionic gonadotropin (Sigma Chemical Co., St. Louis, Mo.) was to induce adult Xenopus laevis to breed. The external staging system of Nieuwkoop and Faber was used to determine retinal maturity (Nieuwkoop, 1956). Embryos and isolated eyes were maintained under cyclic lighting conditions (12 hour light: 12 hour dark) in all experiments, rudimentary eyes were removed from embryos at state 33/34, just as photoreceptor outer segments are beginning to form (Stiemke, 1994). Eyes were maintained in vitro for three days at 23° C. in Niu-Twitty medium (Jacobson, 1967) after which they were fixed for subsequent analyses.
When appropriate, the overlying RPE was gently peeled away from the neuroepithelium using finely polished forceps, leaving the underlying retina exposed to the culture medium. Eye rudiments without a closely adherent RPE were cultured in Niu-Twitty media alone, Niu-Twitty containing 0.001% brimonidine. Eyes allowed to mature in vitro in the presence of an adherent RPE in Niu-Twitty medium alone were used as controls.
Any eye with an uneven surface or which had many loose cells associated with it was discarded.

[6] = system: opsin; settings: 0.0001% brimonidine in culture media
Method: as §1
as §2, with “Eyes were maintained in vitro for three days at 23° C. in Niu-Twitty medium (Jacobson, 1967) after which they were fixed for subsequent analyses.” left out

[7] = expected, topical administration, to be verified
Excerpt: The intraocular concentration is likely to be inversely proportional to the surface area available for absorption. […] Once verified, the dosage of brimonidine in eyedrops will be adjusted accordingly (10:1 dilution, i.e. 0.02%) to mimic more closely the intraocular concentrations that would be reached during human application.
The intraocular concentration is likely to be inversely proportional to the surface area available for absorption. […] Once verified, the dosage of brimonidine in the eyedrops would be adjusted accordingly (predicted to be a 10:1 dilution, i.e., 0.02%) to mimic more closely the intraocular concentrations that would be reached during human application.

[8] = system: ischemic retinal injury; settings: cited from earlier work
[9] = rabbit, cited from earlier work
[10] = primate, 2% solution of brimonidine tartrate, twice daily; cited from earlier work
[11] = system: retinal ganglion cells; settings: rat, intraperitoneal administration (Yoles et al 1999); cited from earlier work
[12] = topical administration to the eye, animals and clinical trials; cited from earlier work
[13] = system: retinal degeneration (RP); settings: patients with RP, 15,000 I.U. daily (Berson 1993); cited from earlier work

## Brc1c(NC2=NCCN2)ccc2nccnc12 [UK 14304]
[1]
  cAMP levels following stimulation with forskolin and VIP: reduce cAMP levels

## brimonidine tartrate
[2]
  blood flow in ophthalmic, central retinal, nasal and temporal ciliary arteries: did not affect the blood flow

## Clc1cccc(Cl)c1N=C1NCCN1 [clonidine]
[3]
  protection of photoreceptors from light damage: protect the photoreceptors of albino rats from light damage
[4]
  MAPK phosphorylation in Müller cells: activate selectively and specifically
[1]
  cAMP levels following stimulation with forskolin and VIP: reduce cAMP levels

## Brc1c(NC2=NCCN2)ccc2nccnc12 [brimonidine, 5-bromo-6-(2-imidazolidinylideneamino)-quinoxaline]
[5]; 0.0001% brimonidine, RPE removed, data not shown
  n-cadherin immunolocalization patterns: preserved
[5]; RPE removed
  upregulation of GFAP induced by RPE removal: virtually abolished
[5]; RPE removed, listed as Brimonidine
  upregulation of GFAP induced by RPE removal: prevented the upregulation of GFAP expression
[5]
  glutamine synthetase (GS) immunoreactivity: well preserved
[5]; listed as Brimonidine
  glutamine synthetase (GS) immunoreactivity: allows Müller cells to express glutamine synthetase in the absence of the RPE
[6]
  amount of opsin/eye compared to RPE-free eyes cultured without brimonidine: marked increase
[7]
  intraocular concentration in mouse eye relative to primate eye: approximately 10 times
[8]; retinal ischemia
  ERG b-wave truncation due to ischemia: partially prevent this b-wave truncation
[8]; topically applied 1 hour before injury (Wheeler et al. 1999)
  ischemic retinal injury: effective in decreasing ischemic retinal injury
[9]; 2% solution of brimonidine tartrate, twice daily
  intravitreal concentration reached via topical administration: 450 nM
[9]; topical administration to the other eye
  concentration reaching the fellow eye via the systemic circulation: < 15 nM
[10]
  intravitreal concentration reached via topical administration: 100 nM
[11]
  loss of retinal ganglion cells induced by the crush: effective in decreasing loss of retinal ganglion cells
[12]
  intraocular pressure (IOP): decrease in intraocular pressure

## Cc1cccc(C)c1N=C1NCCCS1 [xylazine]
[3]
  protection of photoreceptors from light damage: protect the photoreceptors of albino rats from light damage
[4]
  MAPK phosphorylation in Müller cells: activate selectively and specifically

## COC(=O)[C@@H]1[C@H]2C[C@H]3c4[nH]c5ccccc5c4CCN3C[C@@H]2CC[C@@H]1O [yohimbine]
[3]; pretreatment with the antagonist (Wen et al., 1996)
  effect of pretreatment on the protective effect of xylazine and clonidine: prevented the protective effect

## CCCCCCCCCCCCCCCC(=O)OC/C=C(C)/C=C/C=C(C)/C=C/C1=C(C)CCCC1(C)C [vitamin A palmitate]
[13]
  progression of retinal degeneration: slowed, but did not prevent, the progression of retinal degeneration
